Assay results: patent US9062051B2, “Compounds and pharmaceutical compositions thereof for the treatment of proliferative disorders” (GALAPAGOS NV, priority 2014, dated 2015)

Experiment: Pharmacokinetics in mice (exposure, AUC)
Assay type: in vivo
Settings: male, CD1, plasma, mouse, po
Method: This study was performed with 42 naïve male CD1 mice (18-20 g, 4-5 weeks old). Mice are obtained from Janvier, Le Genest St Isle, France.
A controlled environment was maintained in the room with optimal conditions of approximately 15 air changes per hour, a temperature of 22±2 C, a relative humidity of 30-70% and a 12 hour light/12 hour dark cycle (nightlight during the night period).
Pelleted diet for rodents (UAR A04C-10) was used and was provided ad libitum. Before p.o. dosing, the animals are deprived of food for at least 12 hours before compound administration and 4 hours after administration. All animals had free access to tap water.
[…] The i.v. bolus administration is given with a dose volume of 5 mL/kg and the oral administration is given with a dose volume of 10 mL/kg. Actual dose volumes are based on the mean of 10 body weights.
The vehicle used to formulate compounds for oral administration is methylcellulose in water (0.5% in water)
From all animals approximately 500 μL blood samples are collected by intra-cardiac puncture under gaseous anesthesia and placed into tubes containing Li-heparin as anticoagulant. Blood samples are collected at various time points (i.v.: 0.05, 0.25, 0.5, 1, 3, 5 and 8 hours after dosing; p.o.: 0.25, 0.5, 1, 3, 5, 8 and 24 hours after dosing). Each mouse is sampled once and euthanized.
Blood is kept on ice. Within 1 hour after sampling, blood is centrifuged at 5,000 rpm for 10 min at 4° C. Immediately after centrifugation, the resulting plasma samples are collected into polypropylene tubes and are kept frozen at −20° C. pending bioanalysis.
Plasma samples are assayed by LC-MS/MS. Plasma proteins are precipitated with an excess of methanol containing the internal standard and the corresponding supernatant is injected on a C18 column. Analytes are eluted out the HPLC system by increasing the percentage of the organic mobile phase. An API4000 mass spectrometer (AB Sciex™) is used for the detection and quantification.
Pharmacokinetic parameters are calculated by non-compartmental analysis using WinNonlin® software (Pharsight, version 5.2).

| Structure (SMILES) | AUC (5 mg/kg) | AUC (30 mg/kg) |
| --- | --- | --- |
| Cc1ccc(NC(=O)c2cccc(C(F)(F)F)c2)cc1-c1ccc2c([C@H](C)O)n[nH]c2n1 [Compound 55, N-{3-[3-((S)-1-Hydroxy-ethyl)-1H-pyrazolo[3,4-b]pyridin-6-yl]-4-methyl-phenyl}-3-trifluoromethyl-benzamide] | 0.851 µg·h/mL | 31.6 µg·h/mL |
| Cc1ccc(NC(=O)c2cccc(C(F)(F)F)c2)cc1-c1cc(C)c2c(N)n[nH]c2n1 [Compound A, N-(3-(3-amino-4-methyl-1H-pyrazolo[3,4-b]pyridin-6-yl)-4-methylphenyl)-3-(trifluoromethyl)benzamide] |  | 1.13 µg·h/mL |
